Source: the kinase profiling compilation of Christmann-Franck et al. (2016)

What was measured:
Experiment in all cases: KINOMEscan competition binding
Conditions in all cases: compound 10.0 µM
ABL2 (human) = ABL2 (human) (UniProt P42684)
ACVR2B (human) = ACVR2B (human) (UniProt Q13705)
ANKK1 (human) = ANKK1 (human) (UniProt Q8NFD2)
BMPR1A (human) = BMPR1A (human) (UniProt P36894)
BTK (human) = BTK (human) (UniProt Q06187)
CDK15 (human) = CDK15 (human) (UniProt Q96Q40)
CDK8 (human) = CDK8 (human) (UniProt P49336)
CLK4 (human) = CLK4 (human) (UniProt Q9HAZ1)
CaMK1 (human) = CaMK1 (human) (UniProt Q14012)
DCLK3 (human) = DCLK3 (human) (UniProt Q9C098)
DYRK2 (human) = DYRK2 (human) (UniProt Q92630)
[1] = tested on: EGFR (human), P00533 [L858R]
EPHB6 (human) = EPHB6 (human) (UniProt O15197)
ERBB2 (human) = ERBB2 (human) (UniProt P04626)
FES (human) = FES (human) (UniProt P07332)
FGFR2 (human) = FGFR2 (human) (UniProt P21802)
GSK3B (human) = GSK3B (human) (UniProt P49841)
HUNK (human) = HUNK (human) (UniProt P57058)
IKBKE (human) = IKBKE (human) (UniProt Q14164)
INSRR (human) = INSRR (human) (UniProt P14616)
IRAK3 (human) = IRAK3 (human) (UniProt Q9Y616)
[2] = biological target: JAK1 JH2 pseudokinase (human) (UniProt P23458)
MAP3K11 (human) = MAP3K11 (human) (UniProt Q16584)
MAP3K7 (human) = MAP3K7 (human) (UniProt O43318)
MYLK4 (human) = MYLK4 (human) (UniProt Q86YV6)
NTRK2 (human) = NTRK2 (human) (UniProt Q16620)
PHKG2 (human) = PHKG2 (human) (UniProt P15735)
[3] = tested on: PIK3CA (human), P42336 [M1043I]
PRKG1 (human) = PRKG1 (human) (UniProt Q13976)
RIPK1 (human) = RIPK1 (human) (UniProt Q13546)
RPS6KA4 KD1 (human) = RPS6KA4 KD1 (human) (UniProt O75676)
SIK3 (human) = SIK3 (human) (UniProt Q9Y2K2)
SLK (human) = SLK (human) (UniProt Q9H2G2)
STK33 (human) = STK33 (human) (UniProt Q9BYT3)
TAOK1 (human) = TAOK1 (human) (UniProt Q7L7X3)
TESK1 (human) = TESK1 (human) (UniProt Q15569)
TNIK (human) = TNIK (human) (UniProt Q9UKE5)
TNK1 (human) = TNK1 (human) (UniProt Q13470)
TSSK1B (human) = TSSK1B (human) (UniProt Q9BXA7)
MAP2K5 (human) = MAP2K5 (human) (UniProt Q13163)

Chain of SLK (human) (Q9H2G2 whole entry, looked up): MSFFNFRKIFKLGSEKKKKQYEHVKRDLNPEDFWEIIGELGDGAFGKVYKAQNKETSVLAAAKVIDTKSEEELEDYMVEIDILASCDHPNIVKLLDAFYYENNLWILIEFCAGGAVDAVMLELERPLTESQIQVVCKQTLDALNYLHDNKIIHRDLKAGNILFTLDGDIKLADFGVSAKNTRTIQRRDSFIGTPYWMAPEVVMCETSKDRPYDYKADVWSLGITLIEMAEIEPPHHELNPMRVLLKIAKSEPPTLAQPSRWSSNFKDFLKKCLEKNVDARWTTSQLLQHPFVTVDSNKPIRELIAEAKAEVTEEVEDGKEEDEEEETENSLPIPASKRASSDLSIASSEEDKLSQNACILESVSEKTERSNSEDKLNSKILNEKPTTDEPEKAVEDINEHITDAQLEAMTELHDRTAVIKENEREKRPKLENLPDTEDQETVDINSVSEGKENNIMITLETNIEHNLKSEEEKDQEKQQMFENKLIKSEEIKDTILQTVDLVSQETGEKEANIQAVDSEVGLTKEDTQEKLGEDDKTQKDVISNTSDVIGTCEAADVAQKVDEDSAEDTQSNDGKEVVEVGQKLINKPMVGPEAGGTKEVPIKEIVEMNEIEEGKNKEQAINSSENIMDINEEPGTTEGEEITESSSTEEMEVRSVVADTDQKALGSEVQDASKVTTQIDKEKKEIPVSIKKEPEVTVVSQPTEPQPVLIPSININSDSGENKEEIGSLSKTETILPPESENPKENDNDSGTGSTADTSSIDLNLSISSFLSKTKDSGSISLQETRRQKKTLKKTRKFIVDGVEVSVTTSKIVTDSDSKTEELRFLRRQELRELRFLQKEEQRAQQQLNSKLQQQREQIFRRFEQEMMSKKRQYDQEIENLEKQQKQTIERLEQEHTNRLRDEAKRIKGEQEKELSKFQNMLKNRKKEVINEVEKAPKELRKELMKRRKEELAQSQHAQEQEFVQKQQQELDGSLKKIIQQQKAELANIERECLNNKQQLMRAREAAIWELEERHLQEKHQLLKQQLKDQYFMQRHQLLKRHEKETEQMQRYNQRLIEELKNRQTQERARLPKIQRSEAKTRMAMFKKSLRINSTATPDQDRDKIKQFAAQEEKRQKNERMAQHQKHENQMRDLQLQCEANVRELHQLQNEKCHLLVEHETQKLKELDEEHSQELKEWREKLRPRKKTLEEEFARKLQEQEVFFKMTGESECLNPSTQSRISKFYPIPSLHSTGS
Chain of BMPR1A (human) (P36894 whole entry, looked up): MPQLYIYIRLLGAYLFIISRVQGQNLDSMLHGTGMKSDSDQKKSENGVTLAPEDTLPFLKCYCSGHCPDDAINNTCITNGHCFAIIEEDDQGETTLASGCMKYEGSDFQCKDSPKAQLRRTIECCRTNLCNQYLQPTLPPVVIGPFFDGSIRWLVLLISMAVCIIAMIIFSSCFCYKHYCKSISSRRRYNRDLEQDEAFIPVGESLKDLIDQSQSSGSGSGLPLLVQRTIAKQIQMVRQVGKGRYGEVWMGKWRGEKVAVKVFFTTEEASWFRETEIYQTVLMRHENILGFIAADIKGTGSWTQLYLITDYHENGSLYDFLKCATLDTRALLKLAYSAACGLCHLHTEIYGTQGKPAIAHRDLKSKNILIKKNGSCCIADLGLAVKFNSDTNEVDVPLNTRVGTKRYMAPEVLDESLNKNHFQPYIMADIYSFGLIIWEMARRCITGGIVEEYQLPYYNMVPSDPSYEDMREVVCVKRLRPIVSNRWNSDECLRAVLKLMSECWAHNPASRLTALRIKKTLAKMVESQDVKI
Chain of EPHB6 (human) (O15197 whole entry, looked up): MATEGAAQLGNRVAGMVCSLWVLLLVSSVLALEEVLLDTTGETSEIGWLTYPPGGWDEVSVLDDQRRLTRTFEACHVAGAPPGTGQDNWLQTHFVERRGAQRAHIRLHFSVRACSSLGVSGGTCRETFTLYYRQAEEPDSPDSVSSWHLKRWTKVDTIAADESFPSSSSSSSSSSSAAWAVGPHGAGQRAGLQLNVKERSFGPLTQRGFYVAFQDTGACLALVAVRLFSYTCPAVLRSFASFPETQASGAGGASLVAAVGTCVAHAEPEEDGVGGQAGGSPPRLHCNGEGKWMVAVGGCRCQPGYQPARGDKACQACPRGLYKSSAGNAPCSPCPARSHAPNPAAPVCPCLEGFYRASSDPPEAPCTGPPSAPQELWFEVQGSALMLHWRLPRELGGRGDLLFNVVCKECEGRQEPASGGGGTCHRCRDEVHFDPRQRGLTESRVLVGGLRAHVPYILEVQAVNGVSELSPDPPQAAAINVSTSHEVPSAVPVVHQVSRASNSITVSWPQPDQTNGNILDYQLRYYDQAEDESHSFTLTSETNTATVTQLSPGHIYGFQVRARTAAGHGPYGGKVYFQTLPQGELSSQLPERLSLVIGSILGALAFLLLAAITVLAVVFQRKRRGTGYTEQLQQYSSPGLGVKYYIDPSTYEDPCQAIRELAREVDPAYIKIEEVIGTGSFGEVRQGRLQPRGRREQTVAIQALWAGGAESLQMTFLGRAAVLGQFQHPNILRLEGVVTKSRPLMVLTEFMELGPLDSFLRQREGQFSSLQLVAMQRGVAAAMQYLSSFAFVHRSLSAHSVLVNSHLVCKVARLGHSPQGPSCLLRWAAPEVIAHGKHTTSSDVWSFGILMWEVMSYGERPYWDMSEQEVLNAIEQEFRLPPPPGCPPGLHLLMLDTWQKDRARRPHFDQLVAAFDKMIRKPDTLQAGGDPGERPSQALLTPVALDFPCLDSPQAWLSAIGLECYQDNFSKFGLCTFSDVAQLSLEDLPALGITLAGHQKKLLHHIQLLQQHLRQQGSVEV
Chain of TNIK (human) (Q9UKE5 whole entry, looked up): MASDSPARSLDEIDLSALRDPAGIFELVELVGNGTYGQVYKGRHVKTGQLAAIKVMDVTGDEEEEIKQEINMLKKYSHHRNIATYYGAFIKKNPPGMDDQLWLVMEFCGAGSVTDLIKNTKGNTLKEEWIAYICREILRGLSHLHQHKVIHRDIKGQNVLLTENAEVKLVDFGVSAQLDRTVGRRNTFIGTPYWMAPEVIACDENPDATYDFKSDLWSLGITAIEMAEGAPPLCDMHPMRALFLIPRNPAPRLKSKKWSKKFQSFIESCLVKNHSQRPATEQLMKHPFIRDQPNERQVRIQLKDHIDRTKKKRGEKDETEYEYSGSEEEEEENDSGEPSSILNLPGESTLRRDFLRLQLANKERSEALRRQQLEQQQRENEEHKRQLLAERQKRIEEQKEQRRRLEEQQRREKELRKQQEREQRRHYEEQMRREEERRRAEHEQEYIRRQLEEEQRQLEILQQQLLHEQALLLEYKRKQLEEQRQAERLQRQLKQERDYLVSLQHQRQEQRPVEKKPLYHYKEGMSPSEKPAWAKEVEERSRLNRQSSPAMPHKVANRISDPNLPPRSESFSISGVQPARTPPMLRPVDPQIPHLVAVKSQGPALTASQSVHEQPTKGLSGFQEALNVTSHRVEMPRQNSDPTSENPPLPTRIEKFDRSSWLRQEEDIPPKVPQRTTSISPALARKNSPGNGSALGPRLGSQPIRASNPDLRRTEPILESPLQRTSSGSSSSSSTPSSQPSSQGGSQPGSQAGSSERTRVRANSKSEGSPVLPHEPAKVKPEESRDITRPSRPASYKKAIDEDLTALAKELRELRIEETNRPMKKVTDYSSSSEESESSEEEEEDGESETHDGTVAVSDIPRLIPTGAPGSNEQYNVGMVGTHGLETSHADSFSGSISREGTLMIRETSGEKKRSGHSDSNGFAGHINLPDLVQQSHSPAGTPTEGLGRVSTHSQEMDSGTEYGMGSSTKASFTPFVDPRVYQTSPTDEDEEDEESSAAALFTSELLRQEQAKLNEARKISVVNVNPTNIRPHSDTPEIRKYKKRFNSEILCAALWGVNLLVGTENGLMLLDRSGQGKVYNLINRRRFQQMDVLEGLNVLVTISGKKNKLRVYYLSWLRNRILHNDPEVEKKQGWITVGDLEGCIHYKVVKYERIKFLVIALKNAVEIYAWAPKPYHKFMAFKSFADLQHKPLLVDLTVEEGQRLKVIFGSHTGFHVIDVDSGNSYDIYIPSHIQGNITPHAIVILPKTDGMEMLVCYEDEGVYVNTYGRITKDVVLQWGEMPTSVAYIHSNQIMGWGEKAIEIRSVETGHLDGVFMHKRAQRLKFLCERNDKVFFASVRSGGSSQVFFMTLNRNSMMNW
Chain of TESK1 (human) (Q15569 whole entry, looked up): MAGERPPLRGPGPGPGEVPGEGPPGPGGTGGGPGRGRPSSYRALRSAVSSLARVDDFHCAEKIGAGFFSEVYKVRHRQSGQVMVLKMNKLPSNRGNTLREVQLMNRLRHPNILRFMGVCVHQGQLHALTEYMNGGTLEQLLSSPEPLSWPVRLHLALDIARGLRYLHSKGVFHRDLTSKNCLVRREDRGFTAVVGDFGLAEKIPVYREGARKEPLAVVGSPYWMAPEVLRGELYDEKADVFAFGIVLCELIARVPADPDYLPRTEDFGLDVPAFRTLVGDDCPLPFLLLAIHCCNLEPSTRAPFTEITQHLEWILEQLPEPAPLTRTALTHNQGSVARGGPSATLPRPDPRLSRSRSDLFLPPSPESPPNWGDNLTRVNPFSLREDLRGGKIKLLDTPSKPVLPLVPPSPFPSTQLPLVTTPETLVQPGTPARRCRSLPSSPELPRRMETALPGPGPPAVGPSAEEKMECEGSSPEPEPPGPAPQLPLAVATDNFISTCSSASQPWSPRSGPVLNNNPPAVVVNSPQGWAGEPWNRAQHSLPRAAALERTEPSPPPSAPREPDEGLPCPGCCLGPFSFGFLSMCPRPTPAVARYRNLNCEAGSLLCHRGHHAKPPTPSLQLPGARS

Row | SMILES | kinase still bound, per cent of control (ABL2 (human)) [%] | kinase still bound, per cent of control (ACVR2B (human)) [%] | kinase still bound, per cent of control (ANKK1 (human)) [%] | kinase still bound, per cent of control (BMPR1A (human)) [%] | kinase still bound, per cent of control (BTK (human)) [%] | kinase still bound, per cent of control (CDK15 (human)) [%] | kinase still bound, per cent of control (CDK8 (human)) [%] | kinase still bound, per cent of control (CLK4 (human)) [%] | kinase still bound, per cent of control (DCLK3 (human)) [%] | kinase still bound, per cent of control [1] [%] | kinase still bound, per cent of control (EPHB6 (human)) [%] | kinase still bound, per cent of control (ERBB2 (human)) [%] | kinase still bound, per cent of control (FGFR2 (human)) [%] | kinase still bound, per cent of control (GSK3B (human)) [%] | kinase still bound, per cent of control (HUNK (human)) [%] | kinase still bound, per cent of control (IKBKE (human)) [%] | kinase still bound, per cent of control (INSRR (human)) [%] | kinase still bound, per cent of control (IRAK3 (human)) [%] | kinase still bound, per cent of control [2] [%] | kinase still bound, per cent of control (MAP3K11 (human)) [%] | other results
1 | Cc1cn(-c2cc(C(=O)Nc3ccc(C)c(NC(=O)c4ccno4)c3)cc(C(F)(F)F)c2)cn1 | 1.8 | 100 | 100 | 100 | 100 | 100 | 100 | 100 | 100 | 100 | 100 | 100 | 100 | 100 | 100 | 100 | 100 | 100 | 100 | 100 | kinase still bound, per cent of control (CaMK1 (human)): 100%; kinase still bound, per cent of control (DYRK2 (human)): 100%; kinase still bound, per cent of control (FES (human)): 100%; kinase still bound, per cent of control (MAP3K7 (human)): 100%; kinase still bound, per cent of control (MYLK4 (human)): 100%; kinase still bound, per cent of control (NTRK2 (human)): 100%; kinase still bound, per cent of control (PHKG2 (human)): 100%; kinase still bound, per cent of control [3]: 100%; kinase still bound, per cent of control (PRKG1 (human)): 100%; kinase still bound, per cent of control (RIPK1 (human)): 100%; kinase still bound, per cent of control (RPS6KA4 KD1 (human)): 100%; kinase still bound, per cent of control (SIK3 (human)): 100%; kinase still bound, per cent of control (SLK (human)): 100%; kinase still bound, per cent of control (STK33 (human)): 100%; kinase still bound, per cent of control (TAOK1 (human)): 100%; kinase still bound, per cent of control (TESK1 (human)): 100%; kinase still bound, per cent of control (TNIK (human)): 100%; kinase still bound, per cent of control (TNK1 (human)): 100%; kinase still bound, per cent of control (TSSK1B (human)): 100%
2 | CCOc1cc(N2CCC(O)CC2)ccc1Nc1ncc2c(n1)N(C)c1ccccc1C(=O)N2C | 100 | 100 | 100 | 100 | 100 | 100 | 100 | 100 | 100 | 100 | 100 | 100 | 100 | 100 | 100 | 100 | 100 | 100 | 100 | 100 | kinase still bound, per cent of control (CaMK1 (human)): 100%; kinase still bound, per cent of control (DYRK2 (human)): 100%; kinase still bound, per cent of control (FES (human)): 100%; kinase still bound, per cent of control (MAP3K7 (human)): 100%; kinase still bound, per cent of control (MYLK4 (human)): 100%; kinase still bound, per cent of control (NTRK2 (human)): 100%; kinase still bound, per cent of control (PHKG2 (human)): 100%; kinase still bound, per cent of control [3]: 100%; kinase still bound, per cent of control (PRKG1 (human)): 100%; kinase still bound, per cent of control (RIPK1 (human)): 100%; kinase still bound, per cent of control (RPS6KA4 KD1 (human)): 100%; kinase still bound, per cent of control (SIK3 (human)): 100%; kinase still bound, per cent of control (SLK (human)): 100%; kinase still bound, per cent of control (STK33 (human)): 100%; kinase still bound, per cent of control (TAOK1 (human)): 100%; kinase still bound, per cent of control (TESK1 (human)): 100%; kinase still bound, per cent of control (TNIK (human)): 100%; kinase still bound, per cent of control (TNK1 (human)): 7.8%; kinase still bound, per cent of control (TSSK1B (human)): 100%
3 | CCCS(=O)(=O)Nc1ccc(F)c(C(=O)c2c[nH]c3ncc(Cl)cc23)c1F | 36 | 28 | 98 | 13 | 52 | 100 | 2.2 | 51 | 26 | 72 | 3.6 | 78 | 59 | 100 | 24 | 91 | 89 | 26 | 100 | 88 | kinase still bound, per cent of control (MAP2K5 (human)): 0.15%; kinase still bound, per cent of control (MAP3K7 (human)): 51%; kinase still bound, per cent of control (MYLK4 (human)): 15%; kinase still bound, per cent of control (NTRK2 (human)): 82%; kinase still bound, per cent of control (PHKG2 (human)): 52%; kinase still bound, per cent of control [3]: 76%; kinase still bound, per cent of control (PRKG1 (human)): 100%; kinase still bound, per cent of control (RIPK1 (human)): 53%; kinase still bound, per cent of control (RPS6KA4 KD1 (human)): 85%; kinase still bound, per cent of control (SIK3 (human)): 100%; kinase still bound, per cent of control (SLK (human)): 15%; kinase still bound, per cent of control (STK33 (human)): 85%; kinase still bound, per cent of control (TAOK1 (human)): 52%; kinase still bound, per cent of control (TESK1 (human)): 13%; kinase still bound, per cent of control (TNIK (human)): 24%; kinase still bound, per cent of control (TNK1 (human)): 96%; kinase still bound, per cent of control (TSSK1B (human)): 83%
